Values of other authors as cited in patent US20250312332A1, “TREATMENT OF MUSCLE FIBROSIS” (University of Newcastle upon Tyne, priority 2022, published 2025).
pEC50, pIC50, pKd, pKi: −log10 of the molar value. Counter-ions that a name gives are not always drawn. Like-named read-outs stand apart in the source and are kept apart here.

Legend:
[1] = monkey eyes; cited from earlier work
ROCK2 = ROCK2 (Homo sapiens, UniProt O75116); conditions: cited from earlier work
MRCKα = MRCKα (Homo sapiens, UniProt Q5VT25); conditions: cited from earlier work
[2] = tested on: myosin II light chain (MLC) phosphorylation induced by MRCKβ; conditions: in vitro; cited from earlier work
ROCK1 = ROCK1 (Homo sapiens, UniProt Q13464); conditions: cited from earlier work
Sequence of ROCK1 (Q13464 whole entry): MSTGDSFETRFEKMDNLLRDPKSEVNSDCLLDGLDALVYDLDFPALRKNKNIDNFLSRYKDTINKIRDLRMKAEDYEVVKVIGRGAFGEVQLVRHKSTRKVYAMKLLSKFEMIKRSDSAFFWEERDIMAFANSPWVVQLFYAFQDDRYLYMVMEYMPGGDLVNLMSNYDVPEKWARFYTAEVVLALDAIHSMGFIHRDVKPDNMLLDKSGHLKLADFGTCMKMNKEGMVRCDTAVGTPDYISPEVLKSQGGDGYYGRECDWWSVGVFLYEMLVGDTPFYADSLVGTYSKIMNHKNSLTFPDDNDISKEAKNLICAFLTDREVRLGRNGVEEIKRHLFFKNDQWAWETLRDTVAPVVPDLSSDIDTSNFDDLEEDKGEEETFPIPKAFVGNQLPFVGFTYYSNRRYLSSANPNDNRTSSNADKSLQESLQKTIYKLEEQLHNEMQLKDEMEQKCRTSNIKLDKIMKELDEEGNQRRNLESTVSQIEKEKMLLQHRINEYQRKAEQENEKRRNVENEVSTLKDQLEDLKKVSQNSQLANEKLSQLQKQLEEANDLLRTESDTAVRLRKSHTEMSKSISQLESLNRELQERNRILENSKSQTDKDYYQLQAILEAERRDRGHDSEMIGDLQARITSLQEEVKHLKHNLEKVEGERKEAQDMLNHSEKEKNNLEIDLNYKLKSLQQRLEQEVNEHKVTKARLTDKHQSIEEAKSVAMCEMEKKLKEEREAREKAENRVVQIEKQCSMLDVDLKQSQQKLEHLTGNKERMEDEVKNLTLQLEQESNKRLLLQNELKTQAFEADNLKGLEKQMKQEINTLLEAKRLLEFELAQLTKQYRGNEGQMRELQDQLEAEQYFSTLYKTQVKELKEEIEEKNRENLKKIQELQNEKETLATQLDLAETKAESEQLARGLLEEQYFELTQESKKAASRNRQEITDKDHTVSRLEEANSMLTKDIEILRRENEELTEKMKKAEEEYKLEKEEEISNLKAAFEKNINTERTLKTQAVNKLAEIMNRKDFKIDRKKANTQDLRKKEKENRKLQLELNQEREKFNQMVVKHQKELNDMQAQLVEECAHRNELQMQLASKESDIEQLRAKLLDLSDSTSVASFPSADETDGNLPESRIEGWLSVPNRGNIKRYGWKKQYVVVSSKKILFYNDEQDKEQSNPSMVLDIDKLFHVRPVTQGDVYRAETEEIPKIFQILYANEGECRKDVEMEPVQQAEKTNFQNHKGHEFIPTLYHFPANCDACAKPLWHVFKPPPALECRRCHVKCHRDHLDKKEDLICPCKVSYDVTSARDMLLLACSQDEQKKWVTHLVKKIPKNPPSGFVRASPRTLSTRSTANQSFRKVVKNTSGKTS

[3] = after transient middle cerebral artery occlusion; cited from earlier work
PASMC = conditions: cited from earlier work
Rho signaling = conditions: cited from earlier work
[4] = tested on: PC-3 prostate cancer cell; conditions: in vitro; cited from earlier work
[5] = insulin-resistant mice; cited from earlier work
PC-3 cell = conditions: read-out: IC50 for PC-3 cell migration; cited from earlier work
MKL1 expression = conditions: 25 μM; cited from earlier work
HMG-COA reductase = HMG-COA reductase (Homo sapiens, UniProt P04035); conditions: cited from earlier work
MDA-MB-231 cells = conditions: cited from earlier work
MRCK = conditions: read-out: IC50 against MRCK; cited from earlier work
ROCK [6] = conditions: read-out: Ki (ROCK / Rho kinase); cited from earlier work
PKC = conditions: cited from earlier work
neuronal cultures = conditions: cited from earlier work
MLCK = conditions: cited from earlier work; for pKi: read-out: Ki for MLCK / MLC-kinase
[7] = biological target: Leukemia-associated Rho guanine nucleotide exchange factor (LARG) (Homo sapiens, UniProt Q9NZN5); conditions: cited from earlier work
NIH 3T3 cells = conditions: 10-30 μM, 24 hours; cited from earlier work
Rac1 = Rac1 (Homo sapiens, UniProt P63000); conditions: cited from earlier work
[8] = tested on: other Rho GTPases (such as Cdc42 or RhoA); conditions: cited from earlier work
[9] = spontaneously hypertensive rat; cited from earlier work
[10] = biological target: cGMP-dependent protein kinase (PKG); conditions: cited from earlier work
PKA = conditions: cited from earlier work
rat aorta = conditions: cited from earlier work
ROCK [11] = conditions: read-out: Kds, binding to ROCK; cited from earlier work
[12] = in vitro; cited from earlier work
granulocytes = conditions: 50 μM; for 15 min; cited from earlier work
[13] = tested on: Rab2, Rab7, H-Ras, Rac1, Rac 2 and RhoA wild-type; conditions: cited from earlier work
Cdc42 = Cdc42 (Homo sapiens, UniProt P60953); conditions: cited from earlier work
Sequence of Cdc42 (P60953 whole entry): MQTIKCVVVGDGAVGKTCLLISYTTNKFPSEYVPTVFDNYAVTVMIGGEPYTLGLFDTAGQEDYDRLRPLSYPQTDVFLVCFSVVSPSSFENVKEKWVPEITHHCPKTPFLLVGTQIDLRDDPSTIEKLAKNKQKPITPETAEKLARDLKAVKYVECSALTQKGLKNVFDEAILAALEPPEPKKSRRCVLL

RhoA = RhoA (Homo sapiens, UniProt P61586); conditions: read-out: Kd for RhoA (RhoA subfamily Rho GTPases); cited from earlier work
Sequence of RhoA (P61586 whole entry): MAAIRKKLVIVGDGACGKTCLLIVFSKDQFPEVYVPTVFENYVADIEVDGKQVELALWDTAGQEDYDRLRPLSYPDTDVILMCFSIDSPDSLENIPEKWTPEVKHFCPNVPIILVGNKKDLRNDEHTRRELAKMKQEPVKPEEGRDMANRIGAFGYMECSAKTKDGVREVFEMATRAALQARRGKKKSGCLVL

B16BL6 and 4T1 cells = conditions: murine animal models; cited from earlier work
[14] = tested on: Cdc42 or Rac1, nor the GEF, LARG; conditions: cited from earlier work
[15] = tested on: ROCK-mediated phosphorylation of MYPTT696; conditions: thoracic aorta of spontaneously hypertensive rats; cited from earlier work
rat ROCK-2 = rat ROCK-2 (Rattus norvegicus, UniProt Q62868); conditions: cited from earlier work
Sequence of rat ROCK-2 (Q62868 whole entry): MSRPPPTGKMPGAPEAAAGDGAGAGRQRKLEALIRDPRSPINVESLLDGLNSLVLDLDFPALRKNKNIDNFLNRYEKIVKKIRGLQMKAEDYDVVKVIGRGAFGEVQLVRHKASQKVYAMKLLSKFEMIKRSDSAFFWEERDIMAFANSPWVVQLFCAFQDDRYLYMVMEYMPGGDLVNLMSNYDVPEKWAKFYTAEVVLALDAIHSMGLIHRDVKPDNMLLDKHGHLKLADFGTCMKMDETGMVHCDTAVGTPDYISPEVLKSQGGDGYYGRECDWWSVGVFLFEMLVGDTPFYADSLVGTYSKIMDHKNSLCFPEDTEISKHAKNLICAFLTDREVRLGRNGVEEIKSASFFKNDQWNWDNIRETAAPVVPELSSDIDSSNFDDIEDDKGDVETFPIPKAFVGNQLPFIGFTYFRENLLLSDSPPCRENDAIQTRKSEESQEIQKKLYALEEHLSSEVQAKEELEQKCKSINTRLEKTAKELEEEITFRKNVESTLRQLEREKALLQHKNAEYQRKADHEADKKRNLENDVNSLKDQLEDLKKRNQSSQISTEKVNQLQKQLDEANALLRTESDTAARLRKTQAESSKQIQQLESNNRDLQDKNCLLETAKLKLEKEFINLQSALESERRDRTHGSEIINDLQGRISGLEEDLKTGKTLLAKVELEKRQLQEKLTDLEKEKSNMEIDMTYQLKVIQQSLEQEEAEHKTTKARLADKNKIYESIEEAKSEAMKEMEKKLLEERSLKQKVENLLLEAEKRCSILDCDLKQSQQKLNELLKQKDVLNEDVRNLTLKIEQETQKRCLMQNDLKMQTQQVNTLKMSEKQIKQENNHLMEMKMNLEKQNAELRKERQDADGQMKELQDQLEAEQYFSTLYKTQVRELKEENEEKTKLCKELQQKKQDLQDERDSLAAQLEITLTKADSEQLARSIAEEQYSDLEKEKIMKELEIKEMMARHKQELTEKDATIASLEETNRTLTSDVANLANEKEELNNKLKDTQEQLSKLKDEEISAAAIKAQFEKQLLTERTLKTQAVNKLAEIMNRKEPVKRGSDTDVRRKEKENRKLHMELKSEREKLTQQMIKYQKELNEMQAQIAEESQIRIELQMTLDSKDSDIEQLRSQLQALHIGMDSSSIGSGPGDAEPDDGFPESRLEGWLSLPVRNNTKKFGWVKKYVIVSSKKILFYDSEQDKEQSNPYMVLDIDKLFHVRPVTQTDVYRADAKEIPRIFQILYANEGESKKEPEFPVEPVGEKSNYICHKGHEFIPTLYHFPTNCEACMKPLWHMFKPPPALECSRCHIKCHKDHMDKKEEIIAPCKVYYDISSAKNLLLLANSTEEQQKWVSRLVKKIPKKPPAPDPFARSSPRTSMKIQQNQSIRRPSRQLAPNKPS

[16] = 0.1%, 0.3%, and 0.5%, cited from earlier work
B16 melanoma [17] = conditions: cited from earlier work
B16 melanoma [18] = conditions: cited from earlier work; remark: listed apart in the source
RAW 264.7 = conditions: LPS plus INF-y; 18 hours; read-out: IC50 for accumulation of nitrite in RAW 264.7; cited from earlier work
RAVSMC = conditions: LPS plus INF-y; 18 hours; read-out: IC50 for accumulation of nitrite in RAVSMC; cited from earlier work
iNOS gene expression = conditions: 10-100 μM; 18 hours; cited from earlier work
[19] = tested on: T47D and CAMA-1 breast cancer cells; conditions: T47D and CAMA-1 cells; cited from earlier work
CaM kinase II = conditions: cited from earlier work

Sequence of ROCK2 (O75116 whole entry): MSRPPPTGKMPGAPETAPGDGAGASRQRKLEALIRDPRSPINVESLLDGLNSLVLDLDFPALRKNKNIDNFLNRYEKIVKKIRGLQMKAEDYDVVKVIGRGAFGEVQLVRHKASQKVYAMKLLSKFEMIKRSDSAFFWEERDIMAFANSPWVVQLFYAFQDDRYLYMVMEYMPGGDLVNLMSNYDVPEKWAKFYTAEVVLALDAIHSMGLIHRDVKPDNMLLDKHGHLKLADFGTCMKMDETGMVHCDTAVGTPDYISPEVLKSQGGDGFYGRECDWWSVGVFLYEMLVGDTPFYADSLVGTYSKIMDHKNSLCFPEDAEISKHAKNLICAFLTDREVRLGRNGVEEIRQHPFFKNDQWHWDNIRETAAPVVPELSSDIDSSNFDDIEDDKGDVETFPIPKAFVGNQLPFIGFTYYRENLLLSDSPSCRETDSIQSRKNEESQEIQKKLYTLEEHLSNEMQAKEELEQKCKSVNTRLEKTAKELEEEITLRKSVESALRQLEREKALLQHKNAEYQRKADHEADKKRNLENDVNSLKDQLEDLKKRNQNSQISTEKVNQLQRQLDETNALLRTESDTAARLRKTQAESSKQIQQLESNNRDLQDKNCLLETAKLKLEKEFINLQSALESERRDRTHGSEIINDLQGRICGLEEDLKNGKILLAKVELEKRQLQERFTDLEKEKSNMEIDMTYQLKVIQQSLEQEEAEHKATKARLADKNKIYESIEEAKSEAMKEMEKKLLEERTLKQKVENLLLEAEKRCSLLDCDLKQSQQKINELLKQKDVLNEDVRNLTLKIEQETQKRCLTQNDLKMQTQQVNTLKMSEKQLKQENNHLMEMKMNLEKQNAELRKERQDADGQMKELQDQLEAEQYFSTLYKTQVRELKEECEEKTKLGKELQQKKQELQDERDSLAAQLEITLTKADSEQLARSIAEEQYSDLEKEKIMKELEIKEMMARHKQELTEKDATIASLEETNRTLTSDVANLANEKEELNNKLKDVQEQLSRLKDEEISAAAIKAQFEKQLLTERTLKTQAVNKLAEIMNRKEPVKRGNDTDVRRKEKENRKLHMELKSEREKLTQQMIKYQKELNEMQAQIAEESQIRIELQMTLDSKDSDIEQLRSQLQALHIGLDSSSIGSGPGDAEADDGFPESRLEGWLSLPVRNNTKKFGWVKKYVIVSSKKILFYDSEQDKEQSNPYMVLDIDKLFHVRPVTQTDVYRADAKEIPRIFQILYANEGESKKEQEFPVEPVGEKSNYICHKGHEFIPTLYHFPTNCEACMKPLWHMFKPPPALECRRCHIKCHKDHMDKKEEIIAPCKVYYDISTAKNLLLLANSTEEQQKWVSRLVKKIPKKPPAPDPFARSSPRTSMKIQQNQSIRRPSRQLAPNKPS

## Cc1ccc(C(=O)OCc2ccc([C@@H](CN)C(=O)Nc3ccc4cnccc4c3)cc2)c(C)c1 [AR-13324]
[1]
  intraocular pressure: reduced intraocular pressure

## O=C(Nc1cn[nH]c1-c1ccccn1)c1nn(C2CCNCC2)cc1Cl [BDP5290]
ROCK2
  pIC50: 7.30
MRCKα
  pIC50: 8.00
[2]
  MLC phosphorylation induced by MRCKβ: completely inhibits
ROCK1
  pIC50: 8.30

## CC(C)NC(=O)COc1cccc(-c2nc(Nc3ccc4[nH]ncc4c3)c3ccccc3n2)c1 [Belumosudil]
[3]
  infarct volume: dose-dependently reduces infarct volume
PASMC
  Tsp-1 and CTGF mRNA levels: significant down-regulations

## CC(ONC(=O)c1cc(C(F)(F)F)cc(C(F)(F)F)c1)C(=O)Nc1ccc(Cl)cc1 (stereo not shown) [CCG-1423]
Rho signaling
  pIC50: 5.82
[4]
  spontaneous PC-3 cell invasion through a Matrigel matrix: selectively inhibited
[5]
  glucose uptake and tolerance: improved glucose uptake and tolerance

## O=C(Nc1ccc(Cl)cc1)C1CCCN(C(=O)c2cccc(-c3ccco3)c2)C1 (stereo not shown) [CCG-203971]
PC-3 cell
  pIC50: 5.38
MKL1 expression
  TGF-β-induced MKL1 expression: significantly represses

## N[C@H](CNc1nc(-c2ccncc2)nc2sc3c(c12)CCCC3)Cc1ccccc1 [CRT0066854]
ROCK2
  pIC50: 6.21

## COCc1c(C(C)C)nc(C(C)C)c(/C=C/[C@@H](O)C[C@@H](O)CC(=O)O)c1-c1ccc(F)cc1 [Cerivastatin]
HMG-COA reductase
  pKi: 8.89
MDA-MB-231 cells
  proliferation and invasiveness of MDA-MB-231 cells: inhibits proliferation and invasiveness

## COc1ccc2c(c1)C[C@H](C(=O)Nc1ccc(-c3cn[nH]c3)cc1OCCN(C)C)CO2 [Chroman 1]
MRCK
  pIC50: 6.82

## Cc1cncc2cccc(S(=O)(=O)N3CCCNC[C@@H]3C)c12 [Compound H-1152]
ROCK [6]
  pKi: 8.80
PKC
  pKi: 5.03
Neuronal cultures; 10 μM, BMP4 and LIF cultures
  neurite length: increases neurite length
Neuronal cultures; 0.5-10 μM
  neuronal survival: no decreased neuronal survival
MLCK
  pKi: 5.00

## Cc1cccc(COc2cccc(/C=C3\C(=O)NN(c4ccccc4)C3=O)c2)c1 [Compound Y16]
[7]
  pKd: 7.12
NIH 3T3 cells
  RhoA-GTP formation induced by serum: inhibit RhoA-GTP formation
  serum or SDF-1α-induced phospho-MLC and phospho-FAK formation: efficiently inhibits

## Cc1ccc(NC(=O)c2cccc(OCc3c(C)noc3C)c2)cc1S(N)(=O)=O [Compound Z62954982]
Rac1
  pIC50: 4.92
  times more effective than NSC23766: 4 times
[8]
  activity of other Rho GTPases: without affecting the activity

## CCn1c(-c2nonc2N)nc2cnc(Oc3cccc(NC(=O)c4ccc(OCCN5CCOCC5)cc4)c3)cc21 [GSK269962A]
[9]
  blood pressure: dose-dependent reduction in blood pressure

## CC1=C(C(=O)Nc2cc3cn[nH]c3cc2F)C(c2ccc(Cl)cc2F)N=C(c2ccnc(Cl)c2)N1 (stereo not shown) [GSK-25]
ROCK1
  pIC50: 8.15
[9]
  blood pressure: drop in blood pressure

## O=S(=O)(c1cccc2cnccc12)N1CCNCC1 [HA-100]
PKC
  pKi: 5.19
PKC; read-out: IC50 for protein kinase C (PKC)
  pIC50: 4.92
[10]
  pIC50: 5.40
PKA; read-out: IC50 for cAMP-dependent protein kinase (PKA)
  pIC50: 5.10
MLCK; read-out: IC50 for MLC-kinase
  pIC50: 3.62
MLCK
  pKi: 4.21

## O=C(O)/C=C/c1cccc(Nc2cnc3ccccc3n2)c1 [HL07]
Rat aorta
  phenylephrine (PE)-induced contraction: inhibited

## COc1c(B(O)O)cccc1-c1nc2ccc3[nH]ncc3c2c2c1CCC2 [HSD1590]
ROCK [11]
  pKd: > 8.70
[12]
  migration: impressive attenuation in migration

## Cc1c[nH]c2ncnc(N3CCC(CN)(C(=O)Nc4cccc(OC(=O)N(C)C)c4)CC3)c12 [LX7101]
PKA; read-out: IC50 for PKA
  pIC50: > 9.00

## O=S(=O)(c1cccc2c(I)cccc12)N1CCCNCC1 [ML-07 hydrochloride]
MLCK; read-out: IC50 for MLCK
  pIC50: 6.52

## NS(=O)(=O)c1ccc(N2N=C(c3ccccc3)CC2c2ccccc2)cc1 (stereo not shown) [MLS-573151]
granulocytes
  fluorescence intensities of phagocytosed beads or bacteria (phagocytosis efficiency): markedly reduced
[13]
  activity against other GTPases family members: inactive
Cdc42
  pEC50: 5.70

## c1cc(-c2ncco2)cc(-c2nnc(Nc3ccc4[nH]ncc4c3)s2)c1 [ROCK2-IN-2]
ROCK2
  pIC50: > 6.00

## N[C@H](Cc1c[nH]c2ccccc12)C(=O)N/N=C/c1ccc2nccnc2c1 [Rhosin hydrochloride]
RhoA
  pKd: ~6.40

## N[C@H](Cc1c[nH]c2ccccc12)C(=O)N/N=C/c1ccc2nccnc2c1 [Rhosin]
B16BL6 and 4T1 cells
  lung metastasis of B16BL6 and 4T1 cells: abrogates the lung metastasis
[14]
  interaction with Cdc42 or Rac1, or LARG: does not interact

## O=c1[nH]ccc2cc(OC3CCNCC3)ccc12 [SAR407899]
ROCK2
  pIC50: 6.87
[15]
  ROCK-mediated phosphorylation of MYPTT696: inhibits
Rat ROCK-2
  pKi: 7.39

## CCCOC(=O)c1cccc(-c2cc(C(=O)Nc3ccncc3F)ccc2CN)c1 [Sovesudil]
ROCK2
  pIC50: 8.64
ROCK1
  pIC50: 8.43
[16]; ocular normotensive and acute hypertensive male rabbits
  Intraocular Pressure (IOP): effectively reduces Intraocular Pressure
[16]; rabbits
  hyperemia: without causing distinct hyperemia

## C[C@@H](N)c1ccc(C(=O)Nc2ccncc2)cc1 [Wf-536, (+)-(R)-4-(1-aminoethyl)-N-(4-pyridyl)benzamide monohydrochloride]
B16 melanoma [17]
  in vitro invasion of B16 melanoma: effectively reduced
B16 melanoma [18]
  in vivo pulmonary metastasis of B16 melanoma: effectively reduced

## Br.Oc1cc2c(cc1O)C(Cc1cccc3ccccc13)NCC2 (stereo not shown) [YS-49]
RAW 264.7
  pIC50: 4.52
RAVSMC
  pIC50: 4.66
iNOS gene expression
  iNOS gene expression induced by LPS and/or cytokines: suppresses iNOS gene expression

## COc1ccc(CC(=O)Nc2nc3c(s2)CCc2ccccc2-3)cc1OC [ZINC00881524]
[19]
  levels of ROCK1: decreases levels of ROCK1

## myosin light chain kinase inhibitor peptide, sequence RKKYKYRRK (SEQ ID NO:1) (MLCK inhibitor peptide 18) [MLCK18]
PKA
  inhibition of PKA: without inhibiting PKA
MLCK; read-out: IC50 for MLCK
  pIC50: 7.30
CaM kinase II
  selectivity vs CaM kinase II: 4000 fold
